Like-named read-outs stand apart in the source and are kept apart here.
Assays:
SPCSV [1] = test: Virus accumulation (RT-qPCR of coat protein RNA) in coinfected sweetpotato plants grown in culture medium: SPCSV; type: in vivo, Sweet potato chlorotic stunt virus; conditions: for SPCSV_FC (fold change of viral accumulation): 50 μM in culture medium, 28 days, relative to DMSO control; for SPCSV accumulation reduced / viral titer SPCSV (log2 fold change relative to controls): plants in culture medium, 50 μM
Protocol: Since tests in culture medium consume smaller amounts of compounds and can be carried out under relatively controlled conditions, sweetpotato plants coinfected with SPCSV and SPFMV were grown in medium supplemented with one of the 30 inhibitor candidates at a concentration of 50 μM. Their effects on plant growth were monitored by imaging the plants once a week. […] In addition, virus accumulation was quantified by measuring the relative abundance of the transcripts encoding viral coat proteins using RT-qPCR ([32]). The effect of individual compounds on virus accumulation was estimated by comparing treated and control plants.
(§1) Sweetpotato plants cultivar 'Huachano' (accession CIP420065) were side-graft inoculated with both SPFMV (East African strain isolate Nam1) and SPCSV-Ug (East African serotype 2) as described previously ([62]). Plantlets were propagated by taking single-node stems grown in a plant culture medium ([33]). Next, plantlets with newly formed roots were transferred to glass tubes (18 by 150 mm) containing 10 ml of medium supplemented with either 50 μM compound (diluted in DMSO; final DMSO concentration, 0.1%) or only 0.1% DMSO as a control. For plant experiments in soil, plantlets were transferred to pots (6 by 6 by 10 cm) filled with a mixture of sand, humus, and washed soil. After 1 week, plants were treated by foliar spraying using either individual compounds at a single concentration (10 μM) (treatment) or water (control/mock) twice a week for 1 month. All plants were grown at 22°C with 60% humidity and a 16-h light/8-h dark photoperiod for 28 days in culture medium and for 41 days in soil. The Finnish National Plant Phenotyping Infrastructure (NaPPI) was used to monitor plant viral disease symptoms as described in our previous study ([33]). Four compounds were tested with the phenotyping platform in two independent batches, each of which included five biological replicates.
Leaf samples were collected from plants grown in culture medium or soil for 28 or 41 days, respectively, and frozen in liquid nitrogen. Total RNA was extracted using the Spectrum plant total RNA kit (Sigma-Aldrich). First-strand cDNA was synthesized using the Transcriptor first-strand cDNA synthesis kit (Roche, Basel, Switzerland). […] All RT-qPCR experiments were conducted in triplicate on three and five biological replicates from plants grown in culture medium and soil, respectively. The primer list can be found in our previous study ([33]).
(§2) For HTS, the activity of CSR3 was calculated by measuring the change in fluorescence as a function of the reaction time using MARS Data Analysis software (BMG Labtech). To evaluate the CSR3 inhibition efficiency of individual compounds, the PI of each compound was calculated using the slope values for the sample, positive control, and negative control according to the following equation: PI = 100 × [1 − (sample − positive)/(negative − positive)]%. IC50 and DSS values were calculated using concentration-specific PI values according to a previous study ([31]). Relative gene expression was calculated using the classical 2^−ΔΔ^CT method ([63]).

[2] = molecular target: T1, CSR3 (RNase III of SPCSV) (Sweet potato chlorotic stunt virus, UniProt Q8JJW8); test: Kinetic-based FRET dose-response assay (IC50, DSS); type: biochemical; conditions: for DSS Comm 1 / DSS FIMM1 / DSS FIMM 2: drug sensitivity score; for DSS Comm 1: repeat Comm 1; for DSS FIMM1: repeat FIMM 1; for DSS FIMM 2: repeat FIMM 2
Protocol: A dose-response assay with six concentrations (1.25 nM to 50 μM) was carried out in three independent experiments, which included two tests with the 112 selected FIMM compounds (i.e., compounds prepared by the HTB-FIMM) and one test using the newly ordered commercial compounds (99 of the 112 compounds, i.e., compounds prepared by a second supplier). A dose-response curve was generated for each compound based on PI values as a function of the concentration.
The HTS assay was designed based on FRET using a 22-bp siRNA (forward sequence, […]; reverse sequence, […]) with a 2-nucleotide (nt) 3′ overhang labeled with the fluorescent dye 6-carboxyfluorescein (FAM) and a black hole quencher (BHQ1) on the sense strand (Metabion, Munich, Germany). Screening was initially carried out at one concentration (10 μM) in a 20-μl reaction buffer. […] All reaction mixtures contained 50 nM CSR3 and 375 nM labeled siRNA in 384-well black flat-bottom microplates (Corning, NY, USA) and were prepared using a BioTek MultiFlo FX dispenser with single-channel random access dispenser cassettes (BioTek, Winooski, VT, USA). The plates were read with a PHERAstar FS reader (BMG Labtech, Ortenberg, Germany).
as §2

SPCSV [3] = conditions: plants in soil, 10 μM foliar spray twice a week for 1 month, vs water-treated
Protocol: Compounds were administered by regular foliar spray over 1 month.
as §1
Leaf samples were collected from plants grown in culture medium or soil for 28 or 41 days, respectively, and frozen in liquid nitrogen. Total RNA was extracted using the Spectrum plant total RNA kit (Sigma-Aldrich). First-strand cDNA was synthesized using the Transcriptor first-strand cDNA synthesis kit (Roche, Basel, Switzerland). Gene expression was measured in a final volume of 10 μl (containing 2 μl 10-fold-diluted cDNA, 5 μl SYBR green I master mix [Roche], and 2.5 μM primers) using the LightCycler 480 instrument II (Roche). All RT-qPCR experiments were conducted in triplicate on three and five biological replicates from plants grown in culture medium and soil, respectively. The primer list can be found in our previous study ([33]).
as §2

[4] = molecular target: T1, CSR3 (RNase III of SPCSV); test: Kinetic-based HTS (FRET, labeled 22-bp siRNA cleavage), one concentration; type: biochemical; conditions: compound 10 μM, 375 nM siRNA, 37°C
Description: Based on the catalytic activity of CSR3 on 22-bp siRNA, our kinetic-based HTS assay was designed using distance-dependent FRET technology. Specifically, one strand of siRNA, as a substrate, was labeled with a fluorescent dye (6-carboxyfluorescein [FAM]) at the 5′ end and a quencher (black hole quencher 1 [BHQ1]) at the 3′ end. The initial reaction rate of CSR3 was quantified using the slope of raw fluorescence under an excitation/emission spectrum at 485/520 nm (Fig. 3A). […] In this study, a total of 6,622 compounds (including 6,400 selected from Glide docking and 222 empirically selected compounds for preliminary assay setup) were screened using kinetic-based HTS at a final concentration of 10 μM. All 384-well screening plates contained 32 negative (with CSR3 [i.e., the substrate was successfully cleaved]) and 32 positive (without CSR3 [i.e., the substrate remained intact]) control reaction mixtures. To evaluate the quality of the HTS assay, the Z-factor (Z′) parameter was calculated using the reaction rates of the positive and negative controls ([30]). […]
The HTS assay was designed based on FRET using a 22-bp siRNA (forward sequence, […]; reverse sequence, […]) with a 2-nucleotide (nt) 3′ overhang labeled with the fluorescent dye 6-carboxyfluorescein (FAM) and a black hole quencher (BHQ1) on the sense strand (Metabion, Munich, Germany). […] The plates were read with a PHERAstar FS reader (BMG Labtech, Ortenberg, Germany).
as §2

[5] = kinetic-based HTS, Fig 5A summary
[6] = read-out: IC50 Comm 1, repeat Comm 1 (commercial compounds), 1.25 nM to 50 μM, unit inferred, numbers match nM
[7] = read-out: IC50 FIMM 2, repeat FIMM 2 (FIMM library compounds), 1.25 nM to 50 μM, unit inferred, numbers match nM
[8] = repeat FIMM 1 (FIMM library compounds), 1.25 nM to 50 μM, unit inferred, numbers match nM (cf. Fig 5A), read-out: IC50 FIMM1
[9] = repeat Comm 1 (commercial compounds), 1.25 nM to 50 μM, unit inferred, numbers match nM, read-out: IC50 Comm 1
[10] = repeat FIMM 2 (FIMM library compounds), 1.25 nM to 50 μM, unit inferred, numbers match nM, read-out: IC50 FIMM 2

T1 sequence (Q8JJW8 entry or part of it): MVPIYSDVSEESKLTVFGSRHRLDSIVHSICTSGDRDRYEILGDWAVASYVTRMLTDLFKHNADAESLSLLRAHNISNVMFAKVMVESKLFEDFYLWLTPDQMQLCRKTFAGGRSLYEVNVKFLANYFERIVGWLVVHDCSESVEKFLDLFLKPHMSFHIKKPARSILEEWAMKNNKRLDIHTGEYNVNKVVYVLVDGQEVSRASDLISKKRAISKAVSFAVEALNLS

| SMILES | SPCSV_FC (fold change of viral accumulation) (SPCSV [1]) | SPCSV accumulation reduced (SPCSV [1]) | viral titer SPCSV (log2 fold change relative to controls) (SPCSV [1]) | DSS Comm 1 [2] | DSS FIMM1 [2] | DSS FIMM 2 [2] | DSS [2, 5] | IC50 [2, 5] [nM] | IC50 [2, 6] [nM] | IC50 [2, 7] [nM] | log2 fold change in coat protein expression of SPCSV (SPCSV [3]) | IC50 [2, 8] [nM] | PI values (percentage of inhibition) [4] [%] | IC50 [2, 9] [nM] | IC50 [2, 10] [nM] |
| --- | --- | --- | --- | --- | --- | --- | --- | --- | --- | --- | --- | --- | --- | --- | --- |
| Cc1ccc(C2Nc3ccc(C(=O)O)cc3C3C=CCC32)cc1 (stereo not drawn) [FIMM031755] | 0.5163 | ~2 fold | −0.95 | 7.7 | 15.9 | 16.2 | 15.9 | ~1270 | 7380 | 1240 | −1.30 |  |  |  |  |
| O=C(O)c1ccc(C2Nc3c(Br)cccc3C3C=CCC32)cc1 (stereo not drawn) [FIMM022230] | 0.08458 | approximately 8 fold | −3.56 | 5.4 | 13.8 | 14.3 | 13.8 | ~1860 | 12000 | 1550 | −0.58 | 1860 |  |  |  |
| O=C1c2c(O)ccc(O)c2C(=O)c2c(NCCNCCO)ccc(NCCNCCO)c21 [FIMM000490] | 0.2453 |  |  | 16.9 | 14.9 | 15.5 |  |  |  |  |  | 1810 | 102.062 | 1200 | 1640 |
| COc1cc(C=C2C(=O)NC(=S)NC2=O)ccc1OCc1ccccc1[N+](=O)[O-] [FIMM101864] | 0.5034 |  |  | 6.4 | 11.2 | 8 |  |  |  |  |  | 3850 | 98.4382 | 1690 | 7240 |

From PMC8315922, “In Vitro Identification and In Vivo Confirmation of Inhibitors for Sweet Potato Chlorotic Stunt Virus RNA Silencing Suppressor, a Viral RNase III” (Journal of Virology, 2021)
